Assay results from PMC7753147, “High-throughput determination of protein affinities using unmodified peptide libraries in nanomolar scale” (iScience, 2020).

What was measured:
FL-geph = assay: µSPOT peptide microarray binding assay with full-length geph
native geph = assay: µSPOT peptide microarray binding assay with native geph from mouse brain lysate
gephE = assay: µSPOT peptide microarray binding assay with recombinant gephE
[1] = µSPOT full positional scan of GlyRβ 15-mer DLRSNDFSIVGSLPR, intensity normalised to wild-type sequence (= 1)
[2] = µSPOT full positional scan of GlyRβ 15-mer DLRSNDFSIVGSLPR, native geph, intensity normalised to wild-type sequence (= 1)
[3] = µSPOT peptide microarray, GlyRβ full positional scan, intensity normalised to wild-type sequence DLRSNDFSIVGSLPR (=1)
[4] = µSPOT peptide microarray, GlyRβ full positional scan, native geph from mouse brain lysate, intensity normalised to wild-type sequence DLRSNDFSIVGSLPR (=1)
[5] = µSPOT peptide microarray, GlyRβ full positional scan, recombinant gephE, intensity normalised to wild-type sequence DLRSNDFSIVGSLPR (=1)

Sequence	Fl-geph Binding Intensity [norm.] (FL-geph; [1])	Native geph Binding Intensity [norm.] (native geph; [2])	gephE Binding Intensity [norm.] (gephE; [1])	Fl-geph Binding Intensity [norm.] (FL-geph; [3])	Native geph Binding Intensity [norm.] (native geph; [4])	gephE Binding Intensity [norm.] (gephE; [5])
DLRSNDFSIVGWLPR [GlyRβ_Full_Positional_Scan_228]	0.67 norm.	0.19 norm.	0.57 norm.			
DLRSNDFSIVSSLPR [GlyRβ_Full_Positional_Scan_215, GlyR β 414-428 variant G424S]	0.44 norm.	0.2 norm.	0.4 norm.			
DLRSNDFHIVGSLPR [GlyRβ_Full_Positional_Scan_153, GlyR β 414-428 variant S421H]				0.95 norm.	0.48 norm.	0.8 norm.
DLRSNDFAIVGSLPR [GlyRβ_Full_Positional_Scan_141, GlyR β 414-428 variant S421A]				0.79 norm.	0.35 norm.	0.55 norm.
DLRSEDFSIVGSLPR [GlyRβ_Full_Positional_Scan_091]				1 norm.	0.96 norm.	0.96 norm.
DLRSNDFSIVGSPPR [GlyRβ_Full_Positional_Scan_245]	0.96 norm.	0.78 norm.	0.89 norm.			
DLRSNDVSIVGSLPR [GlyRβ_Full_Positional_Scan_126, GlyR β 414-428 variant F420V]				0.76 norm.	0.38 norm.	0.52 norm.
DLVSNDFSIVGSLPR [GlyRβ_Full_Positional_Scan_046]				1.27 norm.	1.47 norm.	0.94 norm.
DLRSNDFSIVPSLPR [GlyRβ_Full_Positional_Scan_205, GlyR β 414-428 variant G424P]				0.5 norm.	0.21 norm.	0.41 norm.
DLRSNLFSIVGSLPR [GlyRβ_Full_Positional_Scan_104]				0.9 norm.	0.37 norm.	0.78 norm.
DVRSNDFSIVGSLPR [GlyRβ_Full_Positional_Scan_026]				1.05 norm.	0.98 norm.	1.03 norm.
DDRSNDFSIVGSLPR [GlyRβ_Full_Positional_Scan_030]				1.26 norm.	0.9 norm.	1.07 norm.
DLRSNDFSILGSLPR [GlyRβ_Full_Positional_Scan_184, GlyR β 414-428 variant V423L]				0.66 norm.	0.23 norm.	0.39 norm.
DLRSNDFSIHGSLPR [GlyRβ_Full_Positional_Scan_193, GlyR β 414-428 variant V423H]				0.46 norm.	0.2 norm.	0.32 norm.
DLRSNDFSIYGSLPR [GlyRβ_Full_Positional_Scan_189, GlyR β 414-428 variant V423Y]				0.84 norm.	0.34 norm.	0.79 norm.
DLRSNDFSIVMSLPR [GlyRβ_Full_Positional_Scan_218, GlyR β 414-428 variant G424M]	0.33 norm.	0.17 norm.	0.36 norm.			
DLRSCDFSIVGSLPR [GlyRβ_Full_Positional_Scan_097]				0.76 norm.	0.83 norm.	0.99 norm.
